Experimental data taken from paper PMC4821188 (Biological chemistry, 2010).
“And” between values parts separate entries of the source, which are not always exact repeats. Equal entries are not always repeated. *: point of attachment. EDDnp = O=[N+]([O-])c1ccc(NCCN*)c([N+](=O)[O-])c1; AMC = Cc1cc(=O)oc2cc(N*)ccc12

Key:
[1] = biological target: T1, Recombinant human furin (Homo sapiens, UniProt P09958); type: biochemical; details: for kcat / kcat/Km / Km / hydrolysis by furin (result in words, cell spans kcat, Km, kcat/Km and R): pH 7
T1 sequence (P09958 108-715 limits assumed): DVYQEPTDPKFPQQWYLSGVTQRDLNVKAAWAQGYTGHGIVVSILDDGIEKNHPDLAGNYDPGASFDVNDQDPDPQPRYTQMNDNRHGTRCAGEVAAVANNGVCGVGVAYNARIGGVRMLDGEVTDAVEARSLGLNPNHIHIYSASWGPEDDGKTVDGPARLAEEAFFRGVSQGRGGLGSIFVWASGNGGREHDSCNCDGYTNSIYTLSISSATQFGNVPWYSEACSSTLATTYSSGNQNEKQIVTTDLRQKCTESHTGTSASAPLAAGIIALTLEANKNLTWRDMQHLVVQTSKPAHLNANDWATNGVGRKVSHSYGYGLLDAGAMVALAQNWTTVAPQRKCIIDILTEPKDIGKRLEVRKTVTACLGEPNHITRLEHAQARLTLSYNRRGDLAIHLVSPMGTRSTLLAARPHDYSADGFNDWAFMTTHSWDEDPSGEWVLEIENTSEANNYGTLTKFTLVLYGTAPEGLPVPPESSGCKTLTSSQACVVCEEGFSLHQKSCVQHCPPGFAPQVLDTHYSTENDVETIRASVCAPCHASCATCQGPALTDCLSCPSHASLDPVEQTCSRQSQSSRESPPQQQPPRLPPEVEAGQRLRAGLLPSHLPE

[2] = biological target: T2, Kex2 (Saccharomyces cerevisiae, UniProt P13134); type: biochemical, S. cerevisiae; details: in the absence of Mg^2+
T2 sequence (P13134 114-613 limits assumed): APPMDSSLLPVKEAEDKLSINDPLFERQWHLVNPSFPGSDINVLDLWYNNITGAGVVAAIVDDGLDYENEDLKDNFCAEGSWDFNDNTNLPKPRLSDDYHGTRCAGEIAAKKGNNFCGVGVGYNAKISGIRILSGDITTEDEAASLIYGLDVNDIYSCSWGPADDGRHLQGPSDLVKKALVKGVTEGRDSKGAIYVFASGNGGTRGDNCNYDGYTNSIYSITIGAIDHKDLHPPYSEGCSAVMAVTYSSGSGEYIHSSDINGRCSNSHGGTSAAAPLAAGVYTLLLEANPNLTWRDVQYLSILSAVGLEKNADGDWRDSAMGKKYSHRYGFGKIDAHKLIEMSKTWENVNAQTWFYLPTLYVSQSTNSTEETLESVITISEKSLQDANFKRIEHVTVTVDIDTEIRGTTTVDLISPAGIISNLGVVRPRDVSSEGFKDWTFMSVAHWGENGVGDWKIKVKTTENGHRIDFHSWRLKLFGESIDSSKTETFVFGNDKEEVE

[3] = biological target: T1, Recombinant human furin; type: biochemical
[4] = biological target: T1, Recombinant human furin; type: biochemical; details: 4 μM substrate; 10 mM MES, 1 mM CaCl2, 0.01% Triton X-100, pH 7.0, 36.5 °C

| Compound | R: relative kcat/Km values in presence vs. absence of MgCl2 [1] | kcat [1] | kcat/Km [1] | Km [1] | kcat/Km for hydrolysis by kex2 [2] [M⁻¹ s⁻¹] | hydrolysis by furin (result in words, cell spans kcat, Km, kcat/Km and R) [1] | pK1 of pH-profile of furin hydrolysis [3] | effect on the rate of hydrolysis of Abz-[…]-Q-EDDnp by furin [4] |
| --- | --- | --- | --- | --- | --- | --- | --- | --- |
| SRRKRR↓SAST [compound 22] | 38 | 11.1 (10.0) s^−1 | 76232 (1992) (mM.s)^−1 | – | – | – | – | – |
| GQRKKR↓ALDT [compound 40] | 0.06 | 3.6 (3.9) s^−1 | 829 (14130) (mM.s)^−1 | – | – | – | – | – |
| LRRRRR↓DAGN [compound 25] | 9.9 | 12.3 (1.1) s^−1 | 3455 (348) (mM.s)^−1 | 3.6 µM and 3.3 µM | – | – | – | – |
| Abz-SGRSRRAIDLQ-EDDnp [peptide 10] | 3.0 | 6.2 (4.3) s^−1 | 15923 (5328) (mM.s)^−1 | – | – | – | – | – |
| SKRSRR↓SVSV [compound 13] | 1.5 | 18.3 (10.5) s^−1 | 37347(25362) (mM.s)^−1 | 0.49 µM and 0.41 µM | – | – | – | – |
| HRRDKR↓SVAL [compound 17] | 0.6 | 12.7 (9.5) s^−1 | 23091 (36615) (mM.s)^−1 | – | – | – | – | – |
| RRRAKR↓SPKH [compound 35] | 6.2 | 5.3 (8.7) s^−1 | 4383 (710) (mM.s)^−1 | – | – | – | – | – |
| HNRTKR↓STDG [compound 23] | 28 | 7.8 (0.26) s^−1 | 8210 (289) (mM.s)^−1 | 0.95 µM and 0.87 µM | – | – | – | – |
| RRRKKR↓SLFG [compound 46] | 54 | 7.6 (1.0) s^−1 | 33043 (606) (mM.s)^−1 | – | – | – | – | – |
| HRREKR↓SVAL [compound 16] | 0.7 | 7.6 (12.2) s^−1 | 38300 (55636) (mM.s)^−1 | 0.2 µM and 0.22 µM | – | – | – | – |
| Abz-LDKR↓EAE-Q-EDDnp | – | – | – | – | 353000 | – | – | – |
| SRRKRR↓DVTP [compound 6] | 3.2 | 9.9 (9.2) s^−1 | 66000 (20467) (mM.s)^−1 | – | – | – | – | – |
| SSRHRR↓ALDT [compound 36] | 0.3 | 7.1 (5.6) s^−1 | 1707 (6488) (mM.s)^−1 | – | – | – | – | – |
| Abz-RRRKKR↓GLFG-Q-EDDnp [compound 31] | – | 5.0 s⁻¹ | 322 mM/s | 15.5 µM | – | – | – | – |
| LTRQRR↓SLLP [compound 8] | 1.3 | 3.3 (1.8) s^−1 | 3510 (2708) (mM.s)^−1 | 0.9 µM and 0.64 µM | – | – | – | – |
| MMRHRR↓ELQR [compound 7] | 1.7 | 10.3 (16.2) s^−1 | 23409 (13508) (mM.s)^−1 | – | – | – | – | – |
| QSRRRR↓QTPP [compound 41] | 0.05 | 3.4 (6.3) s^−1 | 1547 (31067) (mM.s)^−1 | – | – | – | – | – |
| Abz-YKR↓EAD-Q-EDDnp | – | – | – | – | 7.939e+06 | – | – | – |
| RRRKKR↓GLSG [compound 45] | 38 | 6.7 (2.4) s^−1 | 30500 (797) (mM.s)^−1 | – | – | – | – | – |
| Abz-GIRRKRSVSHQ-EDDnp [compound 19] | 0.9 | 29.6 (30.3) s^−1 | 70547 (77100) (mM.s)^−1 | 0.42 µM and 0.39 µM | – | – | – | – |
| KRRQRR↓RPPQ [compound 21] | – | – | – | – | – | Slow Hydrolysis | – | – |
| VQREKR↓AVGI [compound 18] | 3.2 | 2.7 (1.2) s^−1 | 1290 (407) (mM.s)^−1 | 2.1 µM and 2.8 µM | – | – | – | – |
| THRTRR↓STSD [compound 24] | 11 | 8.1 (0.44) s^−1 | 4128 (370) (mM.s)^−1 | 1.9 µM and 1.2 µM | – | – | – | – |
| Abz-RERRRKKR↓GLFG-Q-EDDnp [peptide 48] | 79 | 12.3(2.6) s^−1 | 123000 (1555) (mM.s)^−1 | – | – | – | – | – |

| Compound | R: relative kcat/Km values in presence vs. absence of MgCl2 [1] | kcat [1] | kcat/Km [1] | Km [1] | kcat/Km for hydrolysis by kex2 [2] [M⁻¹ s⁻¹] | hydrolysis by furin (result in words, cell spans kcat, Km, kcat/Km and R) [1] | pK1 of pH-profile of furin hydrolysis [3] | effect on the rate of hydrolysis of Abz-[…]-Q-EDDnp by furin [4] |
| --- | --- | --- | --- | --- | --- | --- | --- | --- |
| SIRHKR↓EPSV [compound 20] | 0.9 | 1.6 (2.1) s^−1 | 646 (729) (mM.s)^−1 | 2.4 µM and 2.8 µM | – | – | – | – |
| RRRKKR↓SLSG [compound 47] | 14 | 4.5(0.92) s^−1 | 18833 (1333) (mM.s)^−1 | – | – | – | – | – |
| QIRAKR↓ELSK [compound 2] | 6.9 | 6.7 (9.7) s^−1 | 5583 (808) (mM.s)^−1 | – | – | – | – | – |
| Abz-RKRSRRQVNTQ-EDDnp [peptide 1] | 44 | 11.3 (8.4) s^−1 | 56300 (1291) (mM.s)^−1 | – | – | – | 5.46 and 5.67 | – |
| NLRRRR↓DLVD [compound 28] | 7.2 | 3.5 (2.0) s^−1 | 10606 (1470) (mM.s)^−1 | – | – | – | – | – |
| HKREKR↓QAKH [compound 39] | 0.1 | 6.3 (6.9) s^−1 | 2354 (17734) (mM.s)^−1 | – | – | – | – | – |
| HRRQKR↓SVAL [compound 14] | 1.2 | 14.9 (9.2) s^−1 | 40270 (32431) (mM.s)^−1 | 0.37 µM and 0.28 µM | – | – | – | – |
| Ac-RVRR-{AMC} [compound 38, reference compound] | 0.1 | 0.59 (0.98) s^−1 | 120 (1139) (mM.s)^−1 | – | – | – | – | – |
| VVRVRR↓ELLP [compound 5] | 3.8 | 16.6 (12.2) s^−1 | 13071 (3466) (mM.s)^−1 | – | – | – | – | – |
| RNRQKR↓FVLS [compound 42] | – | 0.20 s⁻¹ | 337 mM/s | 0.59 µM | – | – | – | – |
| NTRSRR↓SVPV [compound 29] | – | – | – | – | – | Slow Hydrolysis | – | – |
| Abz-SRRHKR↓FAGV-Q-EDDnp (Abz-SRRHKRFAGVQ-EDDnp) [peptide 32] | 60 | 2.4 (0.21) s^−1 | 33857 (559) (mM.s)^−1 | – | – | – | 5.27 and 5.42 | – |
| VRRRRR↓YALS [compound 43] | – | 0.60 s⁻¹ | 193 mM/s | 3.14 µM | – | – | – | – |
| HHRQRR↓SVSI [compound 37] | 0.1 | 28.9 (39.5) s^−1 | 9031 (116088) (mM.s)^−1 | – | – | – | – | – |
| KIRRRR↓DVVD [compound 26] | 8.9 | 3.1 (0.60) s^−1 | 53448 (6000) (mM.s)^−1 | 0.05 µM and 0.1 µM | – | – | – | – |
| [Cl-].[K+] [KCl] | – | – | – | – | – | – | – | increased the rate of hydrolysis |
| SRRSRR↓SLTV [compound 12] | – | 6.2 (4.3) s^−1 | 15923 (5328) (mM.s)^−1 | – | – | – | – | – |
| LKRRRR↓DTQQ [compound 30] | 0.6 | 6.7 (0.61) s^−1 | 1303 (2184) (mM.s)^−1 | – | – | – | – | – |
| [Cl-].[Cl-].[Mg+2] [Mg^2+, magnesium chloride] | – | – | – | – | – | – | – | significant increase |
| [Cl-].[Na+] [NaCl] | – | – | – | – | – | – | – | no effect |
| RKRRKR↓ELET [compound 27] | 8.5 | 4.3 (0.23) s^−1 | 1400 (164) (mM.s)^−1 | – | – | – | – | – |
| KKRKRR↓FLGF [compound 33] | 4.2 | 1.1 (0.64) s^−1 | 2173 (512) (mM.s)^−1 | – | – | – | – | – |
| TRRFRR↓SITE [compound 34] | 1.3 | 19.8 (16.4) s^−1 | 37358 (28362) (mM.s)^−1 | 0.53 µM and 0.58 µM | – | – | – | – |
| RRRDKR↓SVAL [compound 15] | 0.8 | 12.2 (14.6) s^−1 | 29658 (37505) (mM.s)^−1 | 0.41 µM and 0.39 µM | – | – | – | – |
